Reference: the RepoRT retention time repository

Test: RP, Waters ACQUITY Premier BEH C18, 100 × 2.1 mm, 1.7 µm, 40 °C, 0.3 to 0.4 mL/min, estimated dead time 0.73 min; A: water + 0.1% formic acid; B: acetonitrile + 0.1% formic acid; gradient (min/%B) 0/0.5 0.1/0.5 10/80 10.1/99.5 12/0.5 12.1/0.5 14.5/0.5
Conditions: stereoisomer not certain

SMILES	LC retention time [min]
N[C@@H](Cc1cc(I)c(Oc2ccc(O)cc2)c(I)c1)C(=O)O [3,5-DIIODO-L-THYRONINE]	5.64
N[C@@H](Cc1cc(I)c(O)c(I)c1)C(=O)O [3,5-DIIODO-L-TYROSINE]	4.59
Cn1c(=O)[nH]c(=O)c2c1[nH]c(=O)n2C [3,7-DIMETHYLURIC ACID]	1.28
O=C(O)CCc1ccccc1O [3-(2-HYDROXYPHENYL)PROPANOATE]	5.47
O=C([O-])C(O)Cc1ccc(O)c(O)c1.[Na+] (stereo unspecified) [3-(3,4-DIHYDROXYPHENYL)LACTIC ACID]	3.74
Nc1cc(C(=O)O)ccc1O [3-AMINO-4-HYDROXYBENZOATE]	1.37
Nc1cc(O)cc(C(=O)O)c1 [3-AMINO-5-HYDROXYBENZOATE]	1.49
CCCc1oc(CCC(=O)O)c(C(=O)O)c1C [3-CARBOXY-4-METHYL-5-PROPYL-2-FURANPROPIONIC ACID]	6.56
Nc1c(O)cccc1C(=O)O [3-HYDROXYANTHRANILATE]	3.85
O=Cc1cccc(O)c1 [3-HYDROXYBENZALDEHYDE]	5.11
O=C(O)c1cccc(O)c1 [3-HYDROXYBENZOATE]	4.72
CC(O)CC(=O)O (stereo unspecified) [3-HYDROXYBUTANOATE]	4.45
CCCCCCCCCC(O)CC(=O)O (stereo unspecified) [3-HYDROXYDODECANOIC ACID]	7.65
CCCCCCCCCCCCCC(O)CC(=O)O (stereo unspecified) [3-HYDROXYHEXADECANOIC ACID]	8.7
O=C(O)CNC(=O)c1cccc(O)c1 [3-HYDROXYHIPPURIC ACID]	3.03
O=C(O)Cc1cccc(O)c1 [3-HYDROXYPHENYLACETATE]	3.54
CCCCCCCCCCCC(O)CC(=O)O (stereo unspecified) [3-HYDROXYTETRADECANOIC ACID]	8.11
O=C(O)CCCc1c[nH]c2ccccc12 [3-INDOLEBUTYRIC ACID]	6.25
COc1cc(CCN)ccc1O [3-METHOXYTYRAMINE]	3.47
CC1C(=O)Nc2ccccc21 (stereo unspecified) [3-METHYL-2-OXINDOLE]	5.75
CCC(C)C(=O)C(=O)O (stereo unspecified) [3-METHYL-2-OXOVALERATE]	4.42
Cn1cnc(=N)c2[nH]cnc21 [3-METHYLADENINE]	0.904
CS(=O)CCCN=C=S (stereo unspecified) [3-METHYLSULFINYLPROPYL ISOTHIOCYANATE]	4.1

SMILES	LC retention time [min]
Cn1c(=O)[nH]c(=O)c2[nH]cnc21 [3-METHYLXANTHINE]	1.3
N[C@@H](Cc1ccc(O)c([N+](=O)[O-])c1)C(=O)O [3-NITRO-L-TYROSINE]	3.8
O=C(O)CC1C(=O)Nc2ccccc21 (stereo unspecified) [3-OXINDOLE-3-ACETATE]	4.29
O=C(C=Cc1ccc(O)c(O)c1)OC1CC(O)(C(=O)O)CC(O)C1OC(=O)C=Cc1ccc(O)c(O)c1 (stereo unspecified) [4,5-DI-O-CAFFEOYLQUINIC ACID]	4.78
O=C1CC(C(=O)O)NC(=O)N1 (stereo unspecified) [4,5-DIHYDROOROTIC ACID]	1.12
CC(=O)NCCCC(=O)O [4-ACETAMIDOBUTANOATE]	3.27
CC(=O)Nc1ccc(OC2OC(C(=O)O)C(O)C(O)C2O)cc1 (stereo unspecified) [4-ACETAMIDOPHENYLGLUCURONIDE]	1.32
NC(N)=NCCCC(=O)O [4-GUANIDINOBUTANOATE]	1.35
Cc1cc(C(=O)O)ccc1O [4-HYDROXY-3-METHYLBENZOIC ACID]	4.47
O=Cc1ccc(O)cc1 [4-HYDROXYBENZALDEHYDE]	4.88
O=C(O)c1ccc(O)cc1 [4-HYDROXYBENZOATE]	4.37
O=C(O)C1CCC(O)CC1 (stereo unspecified) [4-HYDROXYCYCLOHEXYLCARBOXYLIC ACID]	4.05
O=C(O)CNC(=O)c1ccc(O)cc1 [4-HYDROXYHIPPURIC ACID]	2.42
CC(C(=O)O)c1ccc(O)cc1 (stereo unspecified) [4-HYDROXYPHENYL-2-PROPIONIC ACID]	5.12
O=C(O)Cc1cnc[nH]1 [4-IMIDAZOLEACETATE]	0.92
Cc1ccc(O)c(O)c1 [4-METHYLCATECHOL]	4.34
Cc1ncc(CO)c(C(=O)O)c1O [4-PYRIDOXATE]	3.4
O=C(O)c1ccnc2ccccc12 [4-QUINOLINECARBOXYLATE]	3.01
CC1OC(n2cnc3c(N)ncnc32)C(O)C1O (stereo unspecified) [5'-DEOXYADENOSINE]	3.5
Cc1cc2nc[nH]c2cc1C [5,6 DIMETHYLBENZIMIDAZOLE]	4.48
COc1c(O)cc2oc(-c3ccc(O)cc3)cc(=O)c2c1O [5,7-DIHYDROXY-2-(4-HYDROXYPHENYL)-6-METHOXY-4H-CHROMEN-4-ONE]	6.08
O=c1cc(-c2ccccc2)oc2cc(O)cc(O)c12 [5,7-DIHYDROXYFLAVONE]	7.23
CC(=O)Nc1c(NC=O)[nH]c(=O)n(C)c1=O [5-ACETYLAMINO-6-FORMYLAMINO-3-METHYLURACIL]	1.11
